Measured values: patent US10945435B2, “Imidazopyrimidine derivatives with sulfur containing phenyl and pyridyl substituents” (SYNGENTA PARTICIPATIONS AG, priority 2017, dated 2021)

Experiments:
Format in all cases: in vivo
[1] = test system: Spodoptera littoralis (Egyptian Cotton Leaf Worm); experiment: Example B16 Spodoptera littoralis feeding/contact activity; conditions: foliar, 72 h, application rate of 200 ppm, L1 larvae on sprayed cotton leaf discs, 3 days after infestation
Protocol: Spodoptera littoralis (Egyptian Cotton Leaf Worm): Feeding/Contact Activity
(§1) Cotton leaf discs were placed onto agar in 24-well microtiter plates and sprayed with aqueous test solutions prepared from 10,000 ppm DMSO stock solutions. After drying the leaf discs were infested with five L1 larvae. The samples were assessed for mortality 3 days after infestation.

[2] = test system: Plutella xylostella (Diamond Back Moth); experiment: Example B12 Plutella xylostella feeding/contact activity; conditions: 120 h, application rate of 200 ppm, L2 larvae on treated artificial diet, 5 days after infestation
Protocol: Plutella xylostella (Diamond Back Moth): Feeding/Contact Activity
(§2) 24-well microtiter plates with artificial diet were treated with aqueous test solutions prepared from 10,000 ppm DMSO stock solutions by pipetting. After drying, the plates were infested with L2 larvae (10 to 15 per well). The samples were assessed for mortality 5 days after infestation.

[3] = test system: Myzus persicae (Green Peach Aphid); experiment: Example B9 Myzus persicae feeding/contact activity; conditions: foliar, 144 h, application rate of 200 ppm, mixed-age aphids on sprayed sunflower leaf discs, 6 days after infestation
Protocol: Myzus persicae (Green Peach Aphid): Feeding/Contact Activity
Sunflower leaf discs were placed onto agar in a 24-well microtiter plate and sprayed with aqueous test solutions prepared from 10,000 ppm DMSO stock solutions. After drying, the leaf discs were infested with an aphid population of mixed ages. The samples were assessed for mortality 6 days after infestation.

[4] = test system: Euschistus heros (Neotropical Brown Stink Bug); experiment: Example B7 Euschistus heros feeding/contact activity; conditions: 120 h, application rate of 200 ppm, N2 nymphs on sprayed soybean leaves, 5 days after infestation
Protocol: Euschistus heros (Neotropical Brown Stink Bug): Feeding/Contact Activity
(§3) Soybean leaves on agar in 24-well microtiter plates were sprayed with aqueous test solutions prepared from 10,000 ppm DMSO stock solutions. After drying the leaves were infested with N2 nymphs. The samples were assessed for mortality 5 days after infestation.

[5] = test system: Euschistus heros (Neotropical Brown Stink Bug); experiment: Example B5 Euschistus heros mortality and growth inhibition; conditions: 120 h, application rate of 200 ppm, N2 nymphs on sprayed soybean leaves, 5 days after infestation, read-out: effect in at least one of the two categories (mortality or growth inhibition)
Protocol: Euschistus heros (Neotropical Brown Stink Bug)
as §3, with “mortality and growth inhibition in comparison to untreated samples” for “mortality”

[6] = test system: Plutella xylostella (Diamond Back Moth); experiment: Example B13 Plutella xylostella mortality and growth inhibition; conditions: 120 h, application rate of 200 ppm, L2 larvae on treated artificial diet, 5 days after infestation, read-out: effect in at least one of the two categories (mortality or growth inhibition)
Protocol: Plutella xylostella (Diamond Back Moth)
as §2, with “mortality and growth inhibition in comparison to untreated samples” for “mortality”

[7] = test system: Plutella xylostella (Diamond Back Moth); experiment: Example B11 Plutella xylostella growth inhibition activity; conditions: 120 h, application rate of 200 ppm, L2 larvae on treated artificial diet, 5 days after infestation
Protocol: Plutella xylostella (Diamond Back Moth): Growth Inhibition Activity
as §2, with “growth inhibition in comparison to untreated samples” for “mortality”, “infestation. Control of Plutella xylostella by a test sample is given when the growth inhibition is higher than the untreated sample.” for “infestation.”

[8] = test system: Diabrotica balteata (Corn Root Worm); experiment: Example B2 Diabrotica balteata mortality and growth inhibition; conditions: 96 h, application rate of 200 ppm, L2 larvae on sprayed maize sprouts, 4 days after infestation, read-out: effect in at least one of the two categories (mortality or growth inhibition)
Protocol: Diabrotica balteata (Corn Root Worm)
(§4) Maize sprouts placed onto an agar layer in 24-well microtiter plates were treated with aqueous test solutions prepared from 10,000 ppm DMSO stock solutions by spraying. After drying, the plates were infested with L2 larvae (6 to 10 per well). The samples were assessed for mortality and growth inhibition in comparison to untreated samples 4 days after infestation.

[9] = test system: Spodoptera littoralis (Egyptian Cotton Leaf Worm); experiment: Example B14 Spodoptera littoralis anti-feeding activity; conditions: foliar, 72 h, application rate of 200 ppm, L1 larvae on sprayed cotton leaf discs, 3 days after infestation, read-out: control (anti-feeding effect)
Protocol: Spodoptera littoralis (Egyptian Cotton Leaf Worm): Anti-Feeding Activity
as §1, with “anti-feeding effect in comparison to untreated samples” for “mortality”, “infestation. Control of Spodoptera littoralis by a test sample is given when the anti-feedant effect is higher than the untreated sample.” for “infestation.”

[10] = test system: Diabrotica balteata (Corn Root Worm); experiment: Example B4 Diabrotica balteata mortality; conditions: 96 h, application rate of 200 ppm, L2 larvae on sprayed maize sprouts, 4 days after infestation
Protocol: Diabrotica Balteata (Corn Root Worm):
as §4, with “mortality” for “mortality and growth inhibition in comparison to untreated samples”

[11] = test system: Bemisia tabaci (Cotton White Fly); experiment: Example B1 Bemisia tabaci feeding/contact activity; conditions: foliar, 144 h, application rate of 200 ppm, adult white flies on sprayed cotton leaf discs, 6 days after incubation
Protocol: Bemisia tabaci (Cotton White Fly): Feeding/Contact Activity
Cotton leaf discs were placed on agar in 24-well microtiter plates and sprayed with aqueous test solutions prepared from 10,000 ppm DMSO stock solutions. After drying the leaf discs were infested with adult white flies. The samples were checked for mortality 6 days after incubation.

[12] = test system: Myzus persicae (Green Peach Aphid); experiment: Example B10 Myzus persicae systemic activity; conditions: 144 h, test rate of 24 ppm, roots of infested pea seedlings in test solution, 6 days
Protocol: Myzus persicae (Green Peach Aphid). Systemic Activity
Roots of pea seedlings infested with an aphid population of mixed ages were placed directly into aqueous test solutions prepared from 10,000 DMSO stock solutions. The samples were assessed for mortality 6 days after placing seedlings into test solutions.

[13] = test system: Frankliniella occidentalis (Western Flower Thrips); experiment: Example B8 Frankliniella occidentalis feeding/contact activity; conditions: foliar, 168 h, application rate of 200 ppm, mixed-age population on sprayed sunflower leaf discs, 7 days after infestation
Protocol: Frankliniella occidentalis (Western Flower Thrips): Feeding/Contact Activity
Sunflower leaf discs were placed on agar in 24-well microtiter plates and sprayed with aqueous test solutions prepared from 10,000 DMSO stock solutions. After drying the leaf discs were infested with a Frankliniella population of mixed ages. The samples were assessed for mortality 7 days after infestation.

CCS(=O)(=O)c1cc(OCC(F)(F)F)cnc1-c1cn2cnc(SC(F)(F)F)cc2n1 [Compound P1, 2-[3-ethylsulfonyl-5-(2,2,2-trifluoroethoxy)-2-pyridyl]-7-(trifluoromethylsulfanyl)imidazo[1,2-c]pyrimidine]
≥ 80%: mortality at 200 ppm [1] | mortality at 200 ppm [2] | mortality at 200 ppm [3] | mortality at 200 ppm [4] | percent effect (mortality or growth inhibition) at 200 ppm [5] | percent effect (mortality or growth inhibition) at 200 ppm [6] | inhibition at 200 ppm [7] | percent effect (mortality or growth inhibition) at 200 ppm [8] | pest or weed control at 200 ppm [9] | mortality at 200 ppm [10] | mortality at 200 ppm [11]

CCS(=O)(=O)c1cc(OC(C)C)cnc1-c1cn2cnc(SC(F)(F)F)cc2n1 [Compound P2, 2-(3-ethylsulfonyl-5-isopropoxy-2-pyridyl)-7-(trifluoromethylsulfanyl)imidazo[1,2-c]pyrimidine]
≥ 80%: mortality at 200 ppm [1] | mortality at 200 ppm [2] | mortality at 200 ppm [4] | percent effect (mortality or growth inhibition) at 200 ppm [5] | percent effect (mortality or growth inhibition) at 200 ppm [6] | inhibition at 200 ppm [7] | percent effect (mortality or growth inhibition) at 200 ppm [8] | pest or weed control at 200 ppm [9] | mortality at 200 ppm [10]

CCS(=O)(=O)c1cc(OCC(F)F)cnc1-c1cn2cnc([S+]([O-])C(F)(F)F)cc2n1 (stereo not drawn) [Compound P3, 2-[5-(2,2-difluoroethoxy)-3-ethylsulfonyl-2-pyridyl]-7-(trifluoromethylsulfinyl)imidazo[1,2-c]pyrimidine]
≥ 80%: mortality at 200 ppm [3] | mortality at 200 ppm [4] | percent effect (mortality or growth inhibition) at 200 ppm [5] | percent effect (mortality or growth inhibition) at 200 ppm [6] | inhibition at 200 ppm [7] | percent effect (mortality or growth inhibition) at 200 ppm [8] | mortality at 200 ppm [10]

CCS(=O)(=O)c1cc(OCC(F)(F)F)cnc1-c1cn2cnc(C(F)(F)F)cc2n1 [Compound P6, 2-[3-ethylsulfonyl-5-(2,2,2-trifluoroethoxy)-2-pyridyl]-7-(trifluoromethyl)imidazo[1,2-c]pyrimidine]
≥ 80%: mortality at 24 ppm [12] | mortality at 200 ppm [1] | mortality at 200 ppm [2] | mortality at 200 ppm [3] | mortality at 200 ppm [4] | percent effect (mortality or growth inhibition) at 200 ppm [5] | percent effect (mortality or growth inhibition) at 200 ppm [6] | inhibition at 200 ppm [7] | percent effect (mortality or growth inhibition) at 200 ppm [8] | pest or weed control at 200 ppm [9] | mortality at 200 ppm [10] | mortality at 200 ppm [11]

CCS(=O)(=O)c1cc(OC(C)C)cnc1-c1cn2cnc(C(F)(F)F)cc2n1 [Compound P7, 2-(3-ethylsulfonyl-5-isopropoxy-2-pyridyl)-7-(trifluoromethyl)imidazo[1,2-c]pyrimidine]
≥ 80%: mortality at 200 ppm [1] | mortality at 200 ppm [2] | mortality at 200 ppm [3] | mortality at 200 ppm [4] | percent effect (mortality or growth inhibition) at 200 ppm [5] | percent effect (mortality or growth inhibition) at 200 ppm [6] | inhibition at 200 ppm [7] | percent effect (mortality or growth inhibition) at 200 ppm [8] | pest or weed control at 200 ppm [9] | mortality at 200 ppm [10]

CCS(=O)(=O)c1cc(OC(C)(C)C#N)cnc1-c1cn2cnc(C(F)(F)F)cc2n1 [Compound P13, 2-[[5-ethylsulfonyl-6-[7-(trifluoromethyl)imidazo[1,2-c]pyrimidin-2-yl]-3-pyridyl]oxy]-2-methyl-propanenitrile]
≥ 80%: mortality at 200 ppm [1] | mortality at 200 ppm [2] | mortality at 200 ppm [3] | mortality at 200 ppm [4] | percent effect (mortality or growth inhibition) at 200 ppm [5] | percent effect (mortality or growth inhibition) at 200 ppm [6] | mortality at 200 ppm [13] | inhibition at 200 ppm [7] | percent effect (mortality or growth inhibition) at 200 ppm [8] | pest or weed control at 200 ppm [9] | mortality at 200 ppm [10] | mortality at 200 ppm [11]

CCS(=O)(=O)c1cc(OCCSC)cnc1-c1cn2cnc(C(F)(F)F)cc2n1 [Compound P15, 2-[3-ethylsulfonyl-5-(2-methylsulfanylethoxy)-2-pyridyl]-7-(trifluoromethyl)imidazo[1,2-c]pyrimidine]
≥ 80%: mortality at 24 ppm [12] | mortality at 200 ppm [3] | mortality at 200 ppm [4] | percent effect (mortality or growth inhibition) at 200 ppm [5] | mortality at 200 ppm [11]

CCS(=O)(=O)c1cc(OC(F)F)cnc1-c1cn2cnc(C(F)(F)F)cc2n1 [Compound P21, 2-[5-(difluoromethoxy)-3-ethylsulfonyl-2-pyridyl]-7-(trifluoromethyl)imidazo[1,2-c]pyrimidine]
≥ 80%: mortality at 200 ppm [1] | mortality at 200 ppm [2] | mortality at 200 ppm [3] | mortality at 200 ppm [4] | percent effect (mortality or growth inhibition) at 200 ppm [5] | percent effect (mortality or growth inhibition) at 200 ppm [6] | inhibition at 200 ppm [7] | percent effect (mortality or growth inhibition) at 200 ppm [8] | pest or weed control at 200 ppm [9] | mortality at 200 ppm [10] | mortality at 200 ppm [11]

CCS(=O)(=O)c1cc(OCS(C)(=O)=O)cnc1-c1cn2cnc(C(F)(F)F)cc2n1 [Compound P23, 2-[3-ethylsulfonyl-5-(methylsulfonylmethoxy)-2-pyridyl]-7-(trifluoromethyl)imidazo[1,2-c]pyrimidine]
≥ 80%: mortality at 24 ppm [12] | mortality at 200 ppm [3] | mortality at 200 ppm [4] | percent effect (mortality or growth inhibition) at 200 ppm [5]
